{
  "source": "patent US12030936B2",
  "about": "“Modulating the effects of gamma-c-cytokine signaling for the treatment of alopecia and alopecia associated disorders” (BIONIZ THERAPEUTICS, LLC, priority 2019, dated 2024)",
  "key": {"IL-3": {"tested_on": "IL-3", "test": "PT-18β cell proliferation assay (WST-1), IL-3 as non-γc-cytokine negative control", "assay_type": "cell-based, murine", "details": "PT-18β cells, 1 nM cytokine, BNZ-γ as 1:20 or 1:60 dilution of HEK293T supernatant, 2 days", "excerpt": "(§1) For each of the six γc-cytokines, indicator cell lines: NK92, a human NK cell line NK92 available by American Type Culture Collection (ATCC) (catalog #CRL-2407), CTLL-2, a murine CD8 T cells line available from ATCC, and PT-18, a murine mast cell line and its subclone PT-18β, is transfected with human IL-2Rβ gene to make the cells responsive to IL-2 and IL-15 (Tagaya et al., 1996, EMBO J. 15:4928-39), and is used to quantitatively determine the γc-cytokine's growth-promoting activity (See Current protocols in Immunology from Wiley and Sons for a methodological reference).\n(§2) Once the appropriate doses of the cytokine that yield the 50% and 95% maximum response from the indicator cell line is determined, various concentrations (ranging from 1 pM to 10 μM) of the purified or synthesized custom derivative peptide is added to each well containing the cytokine and indicator cells. The reduction in light absorbance at 450 nm is used as an indicator of inhibition of cytokine-stimulated cellular proliferation. Typically, the cells are stimulated by the cytokines such that the absorbance of the well containing indicator cell line and the cytokine is between 2.0 and 3.0, which is reduced to a range of 0.1 to 0.5 by the addition of inhibitory peptides. […]\n(§3) The growth-responses of the cells were determined 2 days after the introduction of BNZ-γ peptide and the cytokine using the WST-1 assay. […]"}, "IL-9": {"tested_on": "IL-9", "test": "PT-18β cell proliferation assay (WST-1), IL-9", "assay_type": "cell-based, murine", "details": "PT-18β cells, 1 nM cytokine, BNZ-γ as 1:20 or 1:60 dilution of HEK293T supernatant, 2 days", "excerpt": "as §1, §2, §3"}, "IL-15": {"tested_on": "IL-15", "test": "PT-18β cell proliferation assay (WST-1), IL-15", "assay_type": "cell-based, murine", "details": "PT-18β cells, 1 nM cytokine, BNZ-γ as 1:20 or 1:60 dilution of HEK293T supernatant, 2 days", "excerpt": "as §1, §2, §3"}, "IL-4": {"tested_on": "IL-4", "test": "PT-18β cell proliferation assay (WST-1), IL-4", "assay_type": "cell-based, murine", "details": "PT-18β cells, 1 nM cytokine, BNZ-γ as 1:20 or 1:60 dilution of HEK293T supernatant, 2 days", "excerpt": "as §1, §2, §3"}, "STAT5": {"tested_on": "STAT5", "test": "IL-15-stimulated tyrosine phosphorylation of STAT5 in PT-18β cells (anti-phospho-STAT5 immunoblot)", "assay_type": "cell-based, murine", "details": "PT-18β cells stimulated by IL-15, presence vs absence of BNZ-γ peptide", "excerpt": "In addition to stimulating cellular proliferation, binding of the γc-cytokines to their receptors causes a diverse array of intracellular events. (Rochman et al. 2009 Nat. Rev. Immunol. 9:480-90, Pesu et al. 2005 Immunol. Rev. 203:127-142.) Immediately after the cytokine binds to its receptor, a tyrosine kinase called Jak3 (Janus-kinase 3) is recruited to the receptor at the plasma membrane. This kinase phosphorylates the tyrosine residues of multiple proteins including the γc-subunit, STAT5 (Signal Transducer and Activator of Transcription 5) and subunits of the PI3 (Phosphatidylinositol 3) kinase. Among these, the phosphorylation of STAT5 has been implicated in many studies as being linked to the proliferation of cells initiated by the γc-cytokine. (Reviewed in Hennighausen and Robinson, 2008 Genes Dev. 22:711-21.) In accordance with these published data, whether or not the BNZ-γ peptide inhibits the tyrosine phosphorylation of STAT5 molecule in PT-18β cells stimulated by IL-15 was examined (results shown in FIG. 4).\nPT-18β cells were stimulated by IL-15 in the presence or absence of BNZ-γ peptide. Cytoplasmic proteins were extracted from the cells according to a conventional method as described in Tagaya et al. 1996 EMBO J. 15:4928-39. […]"}, "humanized NSG mice [1]": {"tested_on": "humanized NSG mice", "test": "Immunohistochemistry of humanized NSG mouse skin tissue for human CD8 T cells", "assay_type": "in vivo", "details": "7-weeks post-transplant with vs without BNZ-γ treatment", "procedure": "In order to characterize the nature of immune attack in the skin tissue and around the hair follicles, immunohistochemistry studies were conducted of the skin tissue of humanized NSG mice 3-weeks (pre-BNZ-γ) and 7-weeks (with or without BNZ-γ treatment) after transplantation of 2 million huPBMCs. The tissue was fixed for 24 hours in 4% formalin (Sigma) and then moved to 70% ethanol for at least 24 hours before being processed. Tissue was then embedded in paraffin following dehydration for two washes of two hours each in 70%, 90%, and 100% ethanol, then cleared in xylene twice for two hours each, and infiltrated with melted paraplast plus at 60 C two times for two hours. Paraffin embedded tissues were stored at room temperature prior to sectioning and staining. An anti-human CD8 antibody (BioCare Medical CRM 311C) or isotype control was used for staining of the tissues based on the standard procedure for IHC."}, "humanized NSG mice [2]": {"tested_on": "humanized NSG mice", "experimental": "In this experiment, NSG mice were transplanted with 2 million huPBMCs on study day 0, with therapeutic treatment beginning 35-days post-transplant. Mice were treated twice weekly with IV injections of PBS control (n=5), BNZ-γ at 2 mg/kg (n=5), anti-IL-2 antibody at 5 mg/kg (n=3), anti-IL-15 antibody at 5 mg/kg (n=3), or combination anti-IL-2 and anti-IL-15 antibody each at 5 mg/kg (n=3) starting on day 35 for a treatment duration of 4 weeks.\nLevels of IL-6 and IFNγ were also measured in this experiment. […] Cytokine levels were determined using sera collected on day 50, except for one animal in the anti-IL-2 antibody treatment group (collected on day 45), one mouse in the PBS control untreated group (collected on day 45), and two mice from the PBS control untreated group (collected on day 40) to ensure a blood sample was collected before each became fatally ill."}, "[3]": {"details": "sera collected on day 50 (some earlier), vs PBS control"}},
  "data": [
    {"substance": "I-K-E-F-L-Q-R-F-I-H-I-V-Q-S-I-I-N-T-S (IKEFLQRFIHIVQSIINTS) [BNZ-γ]", "values": [
      {"measurement": "growth-promoting activity of IL-3", "setting": "IL-3", "value": "not inhibited"},
      {"measurement": "growth-promoting activity of IL-9", "setting": "IL-9", "value": "significantly (p<0.01 Student's T test) reduced"},
      {"measurement": "growth-promoting activity of IL-15", "setting": "IL-15", "value": "significantly (p<0.01 Student's T test) reduced"},
      {"measurement": "cellular proliferation stimulated by IL-4", "setting": "IL-4", "value": "not affected"},
      {"measurement": "tyrosine phosphorylation of STAT5", "setting": "STAT5", "value": "markedly reduced"},
      {"measurement": "number of infiltrated human CD8 T cells in skin tissue", "setting": "humanized NSG mice [1]", "value": "significant reduction in the number of infiltrated CD8 cells"},
      {"measurement": "survival of the BNZ-γ group relative to combination antibody treatment", "setting": "humanized NSG mice [2]; BNZ-γ 2 mg/kg IV twice weekly, 4 weeks from day 35, the words are printed of the combination, BNZ-γ being the more effective (p=0.001)", "value": "less effective than BNZ-γ"},
      {"measurement": "regrowth of hair", "setting": "humanized NSG mice [2]; approximately two weeks after treatment was completed (~day 63), 4-week treatment from day 35", "value": "greatest degree of hair regrowth of all 4 treatment groups"},
      {"measurement": "level of IFNγ in sera", "setting": "humanized NSG mice [2]; [3]", "value": "most effective"},
      {"measurement": "level of IL-6 in sera", "setting": "humanized NSG mice [2]; [3]", "value": "most effective"}
    ]}
  ]
}
